Values after ≈ are worked out from the molar mass of the structure shown. Blank lines part the entries; values can stand above or below the molecule they belong to.
Settings: for aqueous solubility: pH 6.8

SMILES: Cc1cc(N(CCO)CCCO)ncc1Br
MDR1-MDCK efflux ratio: 0.766
intrinsic clearance, human liver microsomes: 12.4 mL/min/kg
intrinsic clearance, rat liver microsomes: 478 mL/min/kg

SMILES: Cn1c(CNc2ccc(C(=N)N)cc2)nc2cc(C(=O)N(CCC(=O)O)c3ccccn3)ccc21
MDR1-MDCK efflux ratio: 0.503
intrinsic clearance, human liver microsomes: ≤ 4.74 mL/min/kg
intrinsic clearance, rat liver microsomes: ≤ 10.7 mL/min/kg
aqueous solubility: 4.91 µg/mL (≈ 10.4 µM)

SMILES: Cc1ccc(-n2c(S)nnc2-c2ccc(O)cc2)c(C)c1
MDR1-MDCK efflux ratio: 34.6
intrinsic clearance, human liver microsomes: 10.1 mL/min/kg
intrinsic clearance, rat liver microsomes: 129 mL/min/kg
aqueous solubility: 28.9 µg/mL (≈ 97.3 µM)

SMILES: Cc1csc(-c2nnc(Nc3ccc(Oc4ncccc4-c4ccnc(N)n4)cc3)c3ccccc23)c1
MDR1-MDCK efflux ratio: 0.918
aqueous solubility: 0.76 µg/mL (≈ 1.51 µM)

SMILES: O=C(NCc1nnc2n1-c1ccccc1CC2)c1ccc2ccccc2c1
MDR1-MDCK efflux ratio: 6.88
intrinsic clearance, human liver microsomes: 28.6 mL/min/kg
intrinsic clearance, rat liver microsomes: 517 mL/min/kg
aqueous solubility: 34.3 µg/mL (≈ 96.9 µM)

SMILES: Cc1nc2cc(=O)[nH]n2c(C)c1CC(=O)OC1CCCCC1
MDR1-MDCK efflux ratio: 1.09
intrinsic clearance, human liver microsomes: 10.5 mL/min/kg
intrinsic clearance, rat liver microsomes: 649 mL/min/kg

SMILES: Cn1ncc2c(N3CCN(c4ccc(Cl)c(Cl)c4)CC3)ncnc21
aqueous solubility: 0.13 µg/mL (≈ 0.358 µM)

SMILES: CCc1nc2ccccc2n1CC(=O)Nc1cnc2ccccc2c1
intrinsic clearance, human liver microsomes: 21.3 mL/min/kg
intrinsic clearance, rat liver microsomes: 188 mL/min/kg

SMILES: N#Cc1ccc(C(=O)N2CCCO2)nc1
MDR1-MDCK efflux ratio: 0.487
intrinsic clearance, human liver microsomes: 37.6 mL/min/kg
intrinsic clearance, rat liver microsomes: 1020 mL/min/kg

SMILES: C[C@H]1CN(C2COC2)CCN1c1ccc(Nc2cc(-c3ccnc(N4CCn5c(cc6c5CC(C)(C)C6)C4=O)c3CO)cn(C)c2=O)nc1
MDR1-MDCK efflux ratio: 23.1
fraction unbound, human plasma: 0.162
intrinsic clearance, human liver microsomes: 14.8 mL/min/kg
intrinsic clearance, rat liver microsomes: ≤ 10.7 mL/min/kg
aqueous solubility: 46 µg/mL (≈ 69.3 µM)

SMILES: CC(C)COc1cc(F)cc(-c2cncc(C(=O)N3CCCC3)n2)c1
MDR1-MDCK efflux ratio: 0.442
aqueous solubility: 0.7 µg/mL (≈ 2.04 µM)

Next, values leading:

MDR1-MDCK efflux ratio: 13.6
intrinsic clearance, human liver microsomes: 6.04 mL/min/kg
intrinsic clearance, rat liver microsomes: 42.3 mL/min/kg
aqueous solubility: 25.8 µg/mL (≈ 83.4 µM)
SMILES: CC(=O)NC1CCN(Cc2cccc(-c3cccnc3)c2)CC1

MDR1-MDCK efflux ratio: 0.674
intrinsic clearance, human liver microsomes: 11.2 mL/min/kg
intrinsic clearance, rat liver microsomes: 73.6 mL/min/kg
aqueous solubility: 71 µg/mL (≈ 225 µM)
SMILES: COc1cc(CN2CCC(c3ccnc(C)n3)CC2)ccc1F

aqueous solubility: 50 µg/mL (≈ 175 µM)
SMILES: O=C(CN1C(=O)CCC1=O)Nc1ccc(F)c(F)c1F

MDR1-MDCK efflux ratio: 1.24
intrinsic clearance, human liver microsomes: 62.6 mL/min/kg
intrinsic clearance, rat liver microsomes: 4560 mL/min/kg
aqueous solubility: 21.4 µg/mL (≈ 63.4 µM)
SMILES: Cc1cccc(-c2nc(CN(Cc3cnn(C)c3)C(C)C)c(C)o2)c1

MDR1-MDCK efflux ratio: 0.652
intrinsic clearance, human liver microsomes: 15.6 mL/min/kg
intrinsic clearance, rat liver microsomes: 76.4 mL/min/kg
aqueous solubility: 53.5 µg/mL (≈ 199 µM)
SMILES: CS(=O)(=O)CCNc1ccc2ccc(F)cc2n1

MDR1-MDCK efflux ratio: 0.91
intrinsic clearance, human liver microsomes: ≤ 4.74 mL/min/kg
intrinsic clearance, rat liver microsomes: ≤ 10.7 mL/min/kg
aqueous solubility: 56.5 µg/mL (≈ 250 µM)
SMILES: Cc1cc(NC(=O)C2CCOCC2)sn1

MDR1-MDCK efflux ratio: 0.467
intrinsic clearance, human liver microsomes: 131 mL/min/kg
intrinsic clearance, rat liver microsomes: 508 mL/min/kg
aqueous solubility: 29.8 µg/mL (≈ 113 µM)
SMILES: COc1nc(C)nc(N(C)Cc2nccs2)c1C

MDR1-MDCK efflux ratio: 6.8
fraction unbound, human plasma: 0.00341
fraction unbound, rat plasma: 0.00506
intrinsic clearance, human liver microsomes: ≤ 4.74 mL/min/kg
intrinsic clearance, rat liver microsomes: ≤ 10.7 mL/min/kg
SMILES: O=C(c1ccc(Oc2ccccc2)cc1Cl)c1c[nH]c2ncnc(N[C@@H]3CC[C@@H](CO)OC3)c12

MDR1-MDCK efflux ratio: 0.667
intrinsic clearance, human liver microsomes: ≤ 4.74 mL/min/kg
intrinsic clearance, rat liver microsomes: 49.9 mL/min/kg
SMILES: Cc1cccc(NCCN2C(=O)CCC2=O)n1

MDR1-MDCK efflux ratio: 0.641
intrinsic clearance, human liver microsomes: 94.9 mL/min/kg
intrinsic clearance, rat liver microsomes: 1180 mL/min/kg
aqueous solubility: 33.6 µg/mL (≈ 124 µM)
SMILES: CN(Cc1cscn1)c1nc2c(cc1C#N)CCC2

MDR1-MDCK efflux ratio: 0.912
intrinsic clearance, human liver microsomes: 37.2 mL/min/kg
intrinsic clearance, rat liver microsomes: 1210 mL/min/kg
aqueous solubility: 38.4 µg/mL (≈ 153 µM)
SMILES: COc1c(N)ncnc1N1CCCC(C)(C)CC1
